“And” between values parts separate entries of the source, which are not always exact repeats. Identical values can stand only once.
Target: HIS-Keap1 full length / Biotin-Nrf2 (16-mer) (Homo sapiens, UniProt Q14145)
Assay: biochemical

Chain of HIS-Keap1 full length / Biotin-Nrf2 (16-mer) (Q14145 whole entry): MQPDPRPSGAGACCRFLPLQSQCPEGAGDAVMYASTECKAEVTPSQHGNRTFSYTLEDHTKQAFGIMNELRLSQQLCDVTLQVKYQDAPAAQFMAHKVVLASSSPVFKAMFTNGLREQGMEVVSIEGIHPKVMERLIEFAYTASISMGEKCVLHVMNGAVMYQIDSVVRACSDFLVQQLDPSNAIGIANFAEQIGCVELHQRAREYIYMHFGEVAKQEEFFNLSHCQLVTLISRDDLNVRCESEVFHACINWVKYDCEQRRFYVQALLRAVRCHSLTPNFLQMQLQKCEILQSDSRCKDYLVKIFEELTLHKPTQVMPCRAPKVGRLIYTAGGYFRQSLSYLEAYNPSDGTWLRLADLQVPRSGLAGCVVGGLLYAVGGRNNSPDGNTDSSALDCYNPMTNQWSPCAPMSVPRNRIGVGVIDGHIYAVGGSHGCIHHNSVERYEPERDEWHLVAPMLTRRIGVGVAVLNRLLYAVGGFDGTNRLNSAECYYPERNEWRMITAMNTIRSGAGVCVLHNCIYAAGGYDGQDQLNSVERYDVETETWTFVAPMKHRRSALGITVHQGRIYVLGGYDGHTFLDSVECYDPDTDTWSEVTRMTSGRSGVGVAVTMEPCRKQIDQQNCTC

Compound	IC50
Cc1c2ccc3c1nnn3CCCCCCc1ccc3c(c1)cc(n3C)C(=O)N1CCc3ccc(cc3C1)[C@@H]2[C@@H](C)C(=O)O [Compound 28]	0.4 nM and 0.5 nM
Cc1c2ccc3c1nnn3CCCCCCc1ccc3c(c1)cc(n3C)C(=O)N1CCc3ccc(cc3C1)[C@H]2[C@@H](C)C(=O)O [Compound 29]	192 nM and 103 nM
Cc1c2ccc3c1nnn3CCCCCCc1ccc3c(c1)cc(n3C)C(=O)N1CCc3ccc(cc3C1)[C@H]2[C@H](C)C(=O)O [Compound 30]	103 nM and 159 nM
Cc1c2ccc3c1nnn3CCCCCCc1ccc3c(c1)cc(n3CCC(F)(F)F)C(=O)N1CCc3ccc(cc3C1)[C@@H]2CC(=O)O [Compound 31]	2.1 nM and 1.2 nM
Cc1c2ccc3c1nnn3CCCCCCc1ccc(c3ccn(C)c13)C(=O)N1CCc3ccc(cc3C1)[C@@H]2CC(=O)O [Compound 32]	0.5 nM and 0.6 nM
Cc1c2ccc3c1nnn3CCCCCc1ccc(c3ccn(C)c13)C(=O)N1CCc3ccc(cc3C1)[C@@H]2CC(=O)O [Compound 33]	0.4 nM and 0.3 nM
Cc1cc2ccc1C(=O)N1CCc3ccc(cc3C1)C(CC(=O)O)c1ccc3c(nnn3CCCCC2)c1F (stereo not shown) [Compound 147]	0.4 nM and 0.3 nM
Cc1nc2ncc1C(CC(=O)O)c1ccc3c(c1)CN(CC3)C(=O)c1c(F)cc(cc1F)OCCCCO2 (stereo not shown) [Compound 197]	164 nM and 148 nM
Cc1c2ccc3c1nnn3CCCCCCOc1cnc(nc1)C(=O)N1CCc3ccc(cc3C1)C2CC(=O)O (stereo not shown) [Compound 198]	0.5 nM and 1.2 nM and 1 nM
CC(C)(C(=O)O)[C@H]1c2ccc3c(c2)CN(CC3)C(=O)c2c(F)cc(cc2F)OCCCCCCn2nnc3cc1ccc32 [Compound 235]	0.5 nM and 0.6 nM (2×)
Cc1cc2ccc1C(=O)N1CCc3ccc(cc3C1)[C@@H](C(C)(C)C(=O)O)c1ccc3c(c1)nnn3CCCCCCO2 [Compound 237]	22.9 nM and 36.1 nM and 70.2 nM and 28.2 nM and 29.9 nM
O=C(O)CC1c2ccc3c(c2)CN(CC3)C(=O)c2ccc(cc2)CCCCCn2nnc3c(Cl)c1ccc32 (stereo not shown) [Compound 249]	1.1 nM and 1.3 nM
CC(C)(C(=O)O)C1c2ccc3c(c2)CN(CC3)C(=O)c2ccc(cc2F)CCCCCn2nnc3cc1ccc32 (stereo not shown) [Compound 271]	1.9 nM (2×) and 1.7 nM
CC(C)(C(=O)O)C1c2ccc3c(c2)CN(CC3)C(=O)c2ccc(cc2F)CCCCCCn2nnc3cc1ccc32 (stereo not shown) [Compound 281]	0.4 nM (2×) and 0.5 nM (2×) and 1.4 nM and 0.6 nM
CC(C)(C(=O)O)C1c2ccc3c(c2)CN(CC3)C(=O)c2c(F)cc(cc2F)CCCCCn2nnc3cc1ccc32 (stereo not shown) [Compound 282]	0.4 nM (2×) and 0.3 nM (3×) and 1.1 nM
O=C(O)CC1c2ccc(nc2)OCCCCCOc2cccc(c2)C(=O)N2CCc3ccc1cc3C2 (stereo not shown) [Compound 344]	4410 nM and 4850 nM
O=C(O)CC1c2ccc(nc2)OCC/C=C\COc2cccc(c2)C(=O)N2CCc3ccc1cc3C2 (stereo not shown) [Compound 345]	2900 nM and 3360 nM
Cc1c2ccc3c1nnn3C/C=C/CCc1ccc3c(c1)cc(n3C)C(=O)N1CCc3ccc(cc3C1)[C@H]2[C@H](C)C(=O)O [Compound 360]	0.9 nM
Cc1c2ccc3c1nnn3CCOCCOc1ccc(cc1)C(=O)N1CCc3ccc(cc3C1)C2CC(=O)O (stereo not shown) [Compound 398]	5.2 nM and 17.3 nM
O=C(O)CC1c2ccc3c(c2)CN(CC3)S(=O)(=O)c2ccc(cc2)OCCCCCCn2nnc3cc1ccc32 (stereo not shown) [Compound 404]	662 nM and 271 nM
O=C(O)C[C@@H]1c2ccc3c(c2)CN(CC3)Cc2ccc(cc2)OCCCCCCn2nnc3cc1ccc32 [Compound 405]	2150 nM and 2050 nM
Cc1c2cccc1C(=O)N1CCc3ccc(cc3C1)C(CC(=O)O)c1ccc3c(nnn3CCCCCO2)c1C (stereo not shown) [Compound 408]	1.6 nM and 1.5 nM and 13.2 nM and 5 nM
O=C(O)CC1c2ccc3c(c2)CN(CC3)C(=O)c2cccc(c2)OCCOCCn2nnc3cc1ccc32 (stereo not shown) [Compound 410]	1050 nM and 1900 nM
Cc1ccc2cc1C(=O)N1CCc3ccc(cc3C1)[C@H]([C@@H](C)C(=O)O)c1ccc3c(nnn3CCCCCO2)c1C [Compound 411]	5.2 nM and 10.1 nM
O=C(O)CC1c2ccc3c(c2)CN(CC3)C(=O)c2ccc(cc2)OCCOCCn2nnc3cc1ccc32 (stereo not shown) [Compound 412]	28.7 nM and 47.9 nM

Compound	IC50
Cc1c2ccc3c1nnn3CCOCCOc1cccc(c1)C(=O)N1CCc3ccc(cc3C1)C2CC(=O)O (stereo not shown) [Compound 414]	106 nM and 313 nM
O=C(O)CC1c2ccc3c(c2)CN(CC3)C(=O)c2cccc(c2)OCCCCc2nnc3cc1ccn23 (stereo not shown) [Compound 415]	13200 nM and 8750 nM
O=C(O)CC1c2ccc3c(c2)CN(CC3)C(=O)c2cccc(c2)OCCCCCc2nnc3cc1ccn23 (stereo not shown) [Compound 416]	2420 nM and 348 nM
Cc1c2cccc1C(=O)N1CCc3ccc(cc3C1)C(CC(=O)O)c1ccc3c(c1)nnn3CCCCO2 (stereo not shown) [Compound 417]	42.7 nM and 35.2 nM
Cc1ccc2cc1OC/C=C/CCn1nnc3cc(ccc31)C(CC(=O)O)c1ccc3c(c1)CN(CC3)C2=O (stereo not shown) [Compound 418]	390 nM and 381 nM
Cc1c2cccc1C(=O)N1CCc3ccc(cc3C1)C(CC(=O)O)c1ccc3c(c1)nnn3CCCCCO2 (stereo not shown) [Compound 420]	8.5 nM and 8.3 nM
Cc1c2ccc3c1nnn3CCCCCOc1cccc(c1)C(=O)N1CCc3ccc(cc3C1)C2CC(=O)O (stereo not shown) [Compound 421]	10.1 nM and 8.4 nM
Cc1ccc2cc1C(=O)N1CCc3ccc(cc3C1)C(CC(=O)O)c1ccc3c(c1)nnn3CCCCCO2 (stereo not shown) [Compound 422]	11.3 nM and 12.2 nM
O=C(O)CC1c2ccc3c(c2)CN(CC3)C(=O)c2ccc(cc2)OC/C=C/CCn2nnc3cc1ccc32 (stereo not shown) [Compound 424]	4.8 nM and 4.7 nM and 2.2 nM and 0.5 nM
Cc1c2ccc3nn(nc13)CC/C=C/COc1cccc(c1)C(=O)N1CCc3ccc(cc3C1)C2CC(=O)O (stereo not shown) [Compound 425]	4320 nM and 5390 nM
Cc1ccc2cc1C(=O)N1CCc3ccc(cc3C1)C(CC(=O)O)c1ccc3c(c1)nnn3CC/C=C/CO2 (stereo not shown) [Compound 426]	9.2 nM and 11.6 nM
Cc1c2cccc1C(=O)N1CCc3ccc(cc3C1)C(CC(=O)O)c1ccc3c(c1)nnn3CC/C=C/CO2 (stereo not shown) [Compound 427]	9.2 nM and 9.9 nM
Cc1ccc2cc1OCCCCn1nnc3cc(ccc31)C(CC(=O)O)c1ccc3c(c1)CN(CC3)C2=O (stereo not shown) [Compound 428]	1090 nM and 962 nM
Cc1c2cccc1C(=O)N1CCc3ccc(cc3C1)C(CC(=O)O)c1ccc3c(c1)nnn3C/C=C/CO2 (stereo not shown) [Compound 429]	112 nM and 82.3 nM
Cc1ccc2cc1OCCCCCn1nnc3cc(ccc31)C(CC(=O)O)c1ccc3c(c1)CN(CC3)C2=O (stereo not shown) [Compound 430]	67.5 nM and 56.1 nM
Cc1ccc2cc1C(=O)N1CCc3ccc(cc3C1)C(CC(=O)O)c1ccc3c(c1)nnn3CCCCO2 (stereo not shown) [Compound 431]	102 nM and 96.9 nM
Cc1ccc2cc1C(=O)N1CCc3ccc(cc3C1)C(CC(=O)O)c1ccc3c(c1)nnn3C/C=C/CO2 (stereo not shown) [Compound 432]	93.1 nM and 93.3 nM
O=C(O)C[C@@H]1c2ccc3c(c2)CN(CC3)C(=O)c2cccc(c2)OCCCCCn2nnc3cc1ccc32 [Compound 433]	287 nM and 204 nM
O=C(O)C[C@H]1c2ccc3c(c2)CN(CC3)C(=O)c2cccc(c2)OCCCCCn2nnc3cc1ccc32 [Compound 434]	17.8 nM and 55.4 nM
O=C(O)CC1c2ccc3c(c2)CN(CC3)C(=O)c2cccc(c2)OCCCCn2nnc3ccc1cc32 (stereo not shown) [Compound 435]	> 30000 nM
O=C(O)CC1c2ccc3c(c2)CN(CC3)C(=O)c2cccc(c2)OC/C=C/CCn2nnc3ccc1cc32 (stereo not shown) [Compound 436]	2670 nM and 3410 nM
O=C(O)CC1c2ccc3c(c2)CN(CC3)C(=O)c2cccc(c2)OC/C=C/CCn2nc3ccc1cc3n2 (stereo not shown) [Compound 437]	219 nM and 234 nM
O=C(O)CC1c2ccc3c(c2)CN(CC3)C(=O)c2cccc(c2)OC/C=C/CCn2nnc3cc1ccc32 (stereo not shown) [Compound 439]	52.7 nM and 121 nM and 119 nM and 122 nM and 106 nM
O=C(O)CC1c2ccc3c(c2)CN(CC3)C(=O)c2cccc(c2)OCCCCCn2nnc3cc1ccc32 (stereo not shown) [Compound 440]	64.9 nM and 70.3 nM and 114 nM and 113 nM
